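Protocol summary: plate cells (96-well), add compound at 5 concentrations, incubate 48 h, interpolate endpoints linearly. The concentration for 50% growth inhibition is given as GI50.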 Activity calls are given as the source filed them. Cut-off read from the data, not from the text of the source: active = GI50 up to about 1.1 µM and inactive = higher.

Some test systems named below: SF-295; SK-MEL-2; Malme-3M; M14; BT-549; OVCAR-4; EKVX; K562; NCI-H460; PC-3; HOP-92; SF-539; TK-10; ACHN; HCT-15; UO-31; KM12; SK-OV-3.
Common to all, as to assay: NCI tumour cell line growth inhibition, 48 h

Regarding `CCN(CC)CCC(=O)/C=C/c1ccccc1`, the GI50 in the assay with SF-295 was 18.8 µM (inactive); with SK-MEL-2, 23.3 µM (inactive); in the assay with Malme-3M it was 15.9 µM (inactive); with M14 it was 15.7 µM (inactive); in the assay on BT-549, 6.9 µM (inactive); with OVCAR-4, 21.1 µM (inactive). Besides, the GI50 with EKVX was 13.9 µM (inactive); with K562, 3.05 µM (inactive); in the assay on NCI-H460 it was 12.1 µM (inactive); in the assay on PC-3, 12.8 µM (inactive); with HOP-92, 10.4 µM (inactive); in the assay on SF-539, 19.9 µM (inactive). Further, the GI50 in the assay on TK-10 was 17.7 µM (inactive); with ACHN, 12.6 µM (inactive); with HCT-15, 15.6 µM; in the assay with UO-31, 13.1 µM (inactive); in the assay on KM12, 6.5 µM (inactive).
Turning to `Cc1ccc2nc(N/N=C/c3sccc3C)cc(C)c2c1`, the GI50 with SK-MEL-2 was > 100 µM (inactive); in the assay on M14 it was > 100 µM (inactive); with BT-549 it was > 100 µM (inactive); in the assay with OVCAR-4, 34.9 µM (inactive); in the assay with EKVX it was > 100 µM (inactive); with K562 it was > 100 µM (inactive). Further, the GI50 is 35 µM (inactive) in the assay with PC-3; 21.1 µM (inactive) in the assay on SK-OV-3; 35 µM (inactive) with HOP-92; 29.1 µM (inactive) in the assay on TK-10; > 100 µM (inactive) with ACHN; > 100 µM in the assay with HCT-15. The GI50 with UO-31 and in the assay with KM12 was > 100 µM (inactive) throughout.
As to `CC(=O)OCC1OC(n2c(C)c(/N=N/c3ccc(C)cc3)c(C)c(C#N)c2=S)C(OC(C)=O)C(OC(C)=O)C1OC(C)=O` (stereo unspecified), the GI50 in the assay with SF-295 was 90.6 µM (inactive); in the assay on Malme-3M, 79.3 µM (inactive); with M14, 48.6 µM (inactive); in the assay with BT-549 it was > 100 µM (inactive); in the assay on OVCAR-4, 41.4 µM (inactive); in the assay on K562 it was > 100 µM (inactive). For the same compound, the GI50 in the assay on NCI-H460 is > 100 µM (inactive); with PC-3, > 100 µM (inactive); with SK-OV-3 it was > 100 µM (inactive); in the assay with HOP-92, 0.895 µM (active); with SF-539, 39.3 µM (inactive); in the assay on TK-10, > 100 µM (inactive). The GI50 with ACHN, with UO-31 and with KM12 was > 100 µM (inactive) in each case.
Consider `N#Cc1nnc2ccccc2c1N`, for which the GI50 in the assay on SK-MEL-2, in the assay with Malme-3M, in the assay with M14, in the assay on BT-549, in the assay with OVCAR-4 and in the assay on EKVX was > 100 µM (inactive) throughout. Further, the GI50 in the assay on K562, with NCI-H460, with PC-3, in the assay on HOP-92, with SF-539 and with TK-10 was > 100 µM (inactive) each time. Moreover, the GI50 in the assay on ACHN was > 100 µM (inactive); in the assay on HCT-15, > 100 µM; in the assay on UO-31 it was > 100 µM (inactive); in the assay on KM12 it was > 100 µM (inactive).
In the case of `O=S(=O)(c1ccc(Br)cc1)N1CCN(S(=O)(=O)c2ccc(Br)cc2)CC1`, the GI50 with SF-295, with SK-MEL-2, with Malme-3M, in the assay with M14, with BT-549 and in the assay on OVCAR-4 was > 100 µM (inactive) in each case. Moreover, the GI50 was > 100 µM (inactive) in the assay with EKVX; 5.87 µM (inactive) with K562; > 100 µM (inactive) with PC-3; > 100 µM (inactive) with SK-OV-3; > 100 µM (inactive) in the assay on HOP-92; > 100 µM (inactive) in the assay with TK-10. Moreover, the GI50 in the assay on ACHN is > 100 µM (inactive); in the assay with HCT-15, > 100 µM; in the assay on UO-31, > 100 µM (inactive); in the assay with KM12 it was > 100 µM (inactive).
Regarding `CC(C)N(C(=O)C12C3(C(=O)C(C)(C)C)C4C5(C#N)C3C1(C(=O)C(C)(C)C)C5C42C(=O)C(C)(C)C)C(C)C` (stereo unspecified), the GI50 in the assay with SF-295, with SK-MEL-2, in the assay with M14, in the assay on BT-549, in the assay with OVCAR-4 and in the assay with EKVX was > 100 µM (inactive) in each case. Besides, the GI50 in the assay on K562 was > 100 µM (inactive); with NCI-H460 it was > 100 µM (inactive); in the assay with PC-3, > 100 µM (inactive); with HOP-92, 66.2 µM (inactive); with SF-539, > 100 µM (inactive); with TK-10 it was > 100 µM (inactive). The GI50 in the assay on ACHN is > 100 µM (inactive); with HCT-15 it was > 100 µM; in the assay on UO-31, > 100 µM (inactive); in the assay on KM12, > 100 µM (inactive).
As to `C/C(Nc1ccc(F)cc1)=C1/CCOC1=O`, the GI50 in the assay with SF-295 is 16.5 µM (inactive); in the assay with Malme-3M it was > 100 µM (inactive); with BT-549 it was > 100 µM (inactive); in the assay with OVCAR-4 it was > 100 µM (inactive); in the assay with EKVX, > 100 µM (inactive); with K562 it was 62.8 µM (inactive). Also, the GI50 in the assay with NCI-H460 is > 100 µM (inactive); in the assay on PC-3 it was 46.5 µM (inactive); in the assay with HOP-92, > 100 µM (inactive); in the assay with SF-539, 77.3 µM (inactive); in the assay on TK-10, > 100 µM (inactive); in the assay on ACHN it was 1.8 µM (inactive). The GI50 with HCT-15 was > 100 µM; in the assay on UO-31, 92.3 µM (inactive); in the assay on KM12, 1.38 µM (inactive).
Take `CC[C@]12C=CCN3CCC4(c5cc(/N=N/c6ccccc6)c(OC)cc5N(C)[C@H]4[C@@](O)(C(=O)OC)[C@@H]1OC(C)=O)[C@@H]32` (stereo partly specified): the GI50 with SF-295 was 15.6 µM (inactive); in the assay with SK-MEL-2, 17.1 µM (inactive); with Malme-3M, 17.8 µM (inactive); in the assay on M14 it was 20.6 µM (inactive); with BT-549 it was 17.1 µM (inactive); with OVCAR-4 it was 17.1 µM (inactive). Besides, the GI50 with EKVX was 16.5 µM (inactive); with K562 it was 18.8 µM (inactive); with NCI-H460, 16 µM (inactive); with PC-3, 14.7 µM (inactive); with HOP-92, 15.4 µM (inactive); with SF-539, 21 µM (inactive). For the same compound, the GI50 in the assay with TK-10 was 17.6 µM (inactive); in the assay on ACHN it was 16.1 µM (inactive); with HCT-15 it was 17.3 µM; in the assay on UO-31 it was 14.6 µM (inactive); in the assay on KM12, 18.7 µM (inactive).
Take `COc1ccc(/N=N/C(=N/NC(=O)c2ccccc2)c2ccc(N(CCC#N)CCC#N)cc2C)cc1`: the GI50 in the assay on SF-295 is 21.5 µM (inactive); in the assay on SK-MEL-2, 88.5 µM (inactive); in the assay with Malme-3M, 48 µM (inactive); in the assay with M14 it was 50.5 µM (inactive); in the assay with BT-549 it was 52.4 µM (inactive); in the assay on OVCAR-4, > 100 µM (inactive). Further, the GI50 in the assay on EKVX is 97.9 µM (inactive); in the assay with K562 it was 19.5 µM (inactive); with NCI-H460, 23.1 µM (inactive); in the assay on PC-3, 19.1 µM (inactive); in the assay with SK-OV-3, 75.3 µM (inactive); in the assay with SF-539, 19.3 µM (inactive). The GI50 is > 100 µM (inactive) in the assay on TK-10; 54.3 µM (inactive) in the assay on ACHN; 26.1 µM with HCT-15; 52 µM (inactive) with UO-31; 11.6 µM (inactive) in the assay with KM12.
On to `CC(C)=CCc1c2c(c3occ(-c4ccc(O)cc4)c(=O)c3c1O)CC(C(C)(C)O)O2` (stereo unspecified) [SENEGALENSIN], for which the GI50 is 12.1 µM (inactive) in the assay with SF-295; 14.6 µM (inactive) in the assay on SK-MEL-2; 21.3 µM (inactive) with Malme-3M; 14.5 µM (inactive) in the assay with M14; 17 µM (inactive) in the assay on BT-549; 12.9 µM (inactive) in the assay on OVCAR-4. For the same compound, the GI50 was 17.2 µM (inactive) in the assay with K562; 12.5 µM (inactive) in the assay with NCI-H460; 13.8 µM (inactive) with PC-3; 18.8 µM (inactive) in the assay on SK-OV-3; 18 µM (inactive) with HOP-92; 20.1 µM (inactive) in the assay with SF-539. Besides, the GI50 in the assay on TK-10 was 16.5 µM (inactive); in the assay on ACHN it was 14.8 µM (inactive); in the assay with HCT-15, 13.1 µM; in the assay on UO-31, 10 µM (inactive); with KM12, 16.8 µM (inactive).
Regarding `C=C1C2C[C@@H]3O[C@H]4C[C@H]5O[C@@]6(C[C@@H]7O[C@]8(C[C@H](C)[C@@H]9O[C@@H]%10CC(CO)O[C@@H]%10C[C@@H]9O8)C[C@H](C)[C@@H]7O6)C[C@H]5O[C@H]4[C@H](C)[C@H]3OC(=O)C[C@H]3CC[C@@H]4OC5[C@H]6O[C@]7(CC[C@H]8CC(=C)[C@H](CC[C@@H](C[C@H]1C)O2)O8)CC6O[C@@H]5[C@@H](O7)[C@H]4O3` (stereo partly specified), the GI50 in the assay on SF-295 was < 0.0001 µM (active); in the assay with SK-MEL-2, < 0.0001 µM (active); in the assay on Malme-3M, < 0.0001 µM (active); with M14 it was < 0.0001 µM (active); with BT-549 it was < 0.0001 µM (active); with OVCAR-4 it was > 0.635 µM (active). The GI50 with EKVX, in the assay on K562, in the assay with NCI-H460, in the assay on PC-3, in the assay with SK-OV-3 and in the assay with HOP-92 was < 0.0001 µM (active) each time. The GI50 with TK-10 was < 0.0001 µM (active); in the assay with ACHN, < 0.0001 µM (active); in the assay with HCT-15, < 0.0001 µM; in the assay with UO-31 it was < 0.0001 µM (active); in the assay with KM12, < 0.0001 µM (active).
On to `CSc1nc2c(c(=O)[nH]1)N=C(c1ccc(Cl)cc1)CC(c1ccccc1)N2` (stereo unspecified), for which the GI50 in the assay on SF-295 was 18.6 µM (inactive); in the assay with SK-MEL-2, 14.1 µM (inactive); in the assay on Malme-3M, 19.5 µM (inactive); in the assay with M14, 16.3 µM (inactive); with BT-549 it was 19.7 µM (inactive); in the assay with OVCAR-4, 11.5 µM (inactive). The GI50 with EKVX was 18.3 µM (inactive); in the assay with K562, 22.2 µM (inactive); with PC-3, 19 µM (inactive); in the assay with HOP-92, 18.4 µM (inactive); in the assay with SF-539 it was 19.2 µM (inactive); with ACHN it was 15.6 µM (inactive). In addition, the GI50 with UO-31 is 13.9 µM (inactive); in the assay on KM12, 16.4 µM (inactive).

The record behind these values is ChEMBL document CHEMBL1201862, “PubChem BioAssay data set” (2004).
